Reference: patent publication US11242365B2, “FOXM1-derived peptide, and vaccine including same” (OncoTherapy Science, Inc., priority 2015, dated 2022)
Entries after “also recorded” stand apart in the source; their conditions may differ.

How the values were obtained:
[1] = tested on: target cells (C1R-A01) pulsed with peptide; assay: IFN-gamma ELISA of CTL lines (HLA-A*01:01); type: cell-based, human; conditions: CTL line against peptide-pulsed C1R-A01; listed as FOXM1-A01-10-566
Protocol: CTLs were propagated using methods similar to those reported by Riddell et al. (Walter E A et al., N Engl J Med 1995, 333(16): 1038-44; Riddell S R et al., Nat Med 1996, 2(2): 216-23). The CTLs were cultured in 25 ml 5% ABS/AIM-V medium together with two types of Mitomycin C-treated human B lymphoblastoid cell lines (5×10^6 cells/25 ml medium each) and an anti-CD3 antibody (final concentration: 40 ng/ml). On the day after beginning of the culturing, IL-2 (final concentration: 120 IU/ml) was added to the culture. On days 5, 8 and 11, the medium was changed to a 5% ABS/AIM-V medium containing IL-2 (final concentration: 30 IU/ml) (Tanaka H et al., Br J Cancer 2001, 84(1): 94-9; Umano Y et al., Br J Cancer 2001, 84(8): 1052-7; Uchida N et al., Clin Cancer Res 2004, 10(24): 8577-86; Suda T et al., Cancer Sci 2006, 97(5): 411-9; Watanabe T et al., Cancer Sci 2005, 96(8): 498-506).
(§1) Peptide-pulsed C1R-A01 (1×10^4 cells/well) was prepared as the target cell. The IFN-gamma ELISPOT assay and IFN-gamma ELISA were performed according to the assay kit manufacturer's manual.

[2] = tested on: target cells (C1R-A01) pulsed with peptide; assay: IFN-gamma ELISA of CTL clones established by limiting dilution (HLA-A*01:01); type: cell-based, human; conditions: CTL clone against peptide-pulsed C1R-A01; listed as FOXM1-A01-10-566
Protocol: After induction of CTLs in vitro, the CTLs were seeded onto 96-well round-bottomed microplates (Nalge Nunc International) at 1 cell/well or 10 cells/well. The CTLs were cultured with two types of Mitomycin C-treated human B lymphoblastoid cell lines (1×10^4 cells/well each) in a total of 150 micro-l/well 5% ABS/AIM-V medium with an anti-CD3 antibody (final concentration: 30 ng/ml) and IL-2 (final concentration: 125 IU/ml). Ten days later, 50 micro-l 5% ABS/AIM-V medium containing 500 IU/ml IL-2 was added to the culture.
as §1

[3] = tested on: COS7 cells expressing FOXM1 and HLA-A*01:01; assay: IFN-gamma production of CTL clone against target cells expressing FOXM1 and HLA-A*01:01; type: cell-based, African green monkey
Description: A cDNA encoding the FOXM1 or HLA-A*01:01 gene was amplified by PCR. The PCR-amplified product was each incorporated into an expression vector. Either or both of the FOXM1 gene-expressing vector and the HLA-A*01:01 gene-expressing vector were introduced into COS7 cells, which is a cell line negative for HLA, using Lipofectamine 2000 (Invitrogen). On the day after gene introduction, COS7 cells were detached and harvested using versene (Invitrogen), and used as the target cell for confirmation of IFN-gamma production (5×10^4 cells/well).
IFN-gamma production of the FOXM1-A01-10-566 (SEQ ID NO: 56)-specific CTL clone against target cells expressing FOXM1 and HLA-A*01:01 was investigated. COS7 cells expressing both FOXM1 and HLA-A*01:01 were prepared as the target cell. COS7 cells expressing either one of FOXM1 and HLA-A*01:01 were prepared as the negative control cell. […] This clearly proves that FOXM1-A01-10-566 (SEQ ID NO: 56) is a peptide generated by antigen processing, and is presented on the cell surface with the HLA-A*01:01 molecule and recognized by CTLs.

## SSDPASOLSY (SSDPASQLSY; a peptide derived from FOXM1) [SEQ ID NO: 56]
[1]
  IFN-gamma production by the CTL line (ELISA): observed; also recorded: CTL line that produce IFN-gamma in a peptide-specific manner was established
[2]
  peptide-specific IFN-gamma production of CTL clone (ELISA): showed a peptide-specific IFN-gamma production
[3]; COS7 cells expressing both FOXM1 and HLA-A*01:01
  IFN-gamma production of peptide-specific CTL clone: showed IFN-gamma production
[3]; negative control: COS7 cells expressing either one of FOXM1 and HLA-A*01:01, listed as FOXM1-A01-10-566
  IFN-gamma production of peptide-specific CTL clone: a significant IFN-gamma production was not observed; also recorded: a significant IFN-gamma production was not shown
